For one experiment, the system named is A-549. Kind of experiment: Cytotoxic activity IC50, A-549. Conditions: Homo sapiens, A549, read-out: CYTOTOXIC ACTIVITIY IC50 (μM) A-549, A-549.
The next experiment relates to DU-145. The experiment in a line: Cytotoxic activity IC50, DU-145. The settings on record: Homo sapiens, DU-145, read-out: CYTOTOXIC ACTIVITIY IC50 (μM) DU-145, DU-145.
The test system of a further experiment is HT-29. The experiment in a line: Cytotoxic activity IC50, HT-29. Conditions: Homo sapiens, HT-29, read-out: CYTOTOXIC ACTIVITIY IC50 (μM) HT-29, HT-29.
A further experiment concerns P-388. Kind of experiment: Cytotoxic activity IC50, P-388. Conditions: Mus musculus, P388, read-out: CYTOTOXIC ACTIVITIY IC50 (μM) P-388.
In a further experiment the test system is MEL-28. Kind of experiment: Cytotoxic activity IC50, MEL-28. The settings on record: Homo sapiens, SK-MEL-28, read-out: CYTOTOXIC ACTIVITIY IC50 (μM) MEL-28, MEL-28.

The record followed here is patent publication US8012975B2, “Antitumoral analogs of ET-743” (Pharma Mar, S.A., priority 2000, dated 2011).

Some results are limits rather than exact numbers.

What is called IC50 is the midpoint of a concentration-inhibition curve.

For the compound `COc1c(C)cc2c(c1OC(C)=O)[C@@H]1C3Cc4c(OC(=O)CCl)c(C)c5c(c4[C@H](CNC(=O)CCc4ccccc4)N3[C@@H](C#N)[C@H](C2)N1C)OCO5` (stereo partly drawn), the IC50 in the experiment on A-549, with DU-145, in the experiment on HT-29, with P-388 and in the experiment with MEL-28 was 0.01 µM throughout.
For `CCCC(=O)Oc1c(OC)c(C)cc2c1[C@@H]1C3Cc4c(OC(C)=O)c(C)c5c(c4[C@H](CNC(=O)C(C)NC(=O)CCc4ccccc4)N3[C@@H](C#N)[C@H](C2)N1C)OCO5` (stereo partly drawn), the IC50 in the experiment with A-549 and in the experiment on HT-29 was 0.012 µM each time.
In the case of `COCOc1c(OC)c(C)cc2c1[C@@H]1C3Cc4c(OC(=O)CCl)c(C)c5c(c4[C@H](CNC(=O)CCc4ccccc4)N3[C@@H](C#N)[C@H](C2)N1C)OCO5` (stereo partly drawn), the IC50 with A-549, with DU-145, in the experiment with HT-29, in the experiment on P-388 and with MEL-28 was 0.1 µM throughout.
For `COc1c(C)cc2c(c1OC(C)=O)[C@@H]1C3Cc4c(OC(C)=O)c(C)c5c(c4[C@H](CNC(=O)[C@@H](C)NC(=O)C(F)(F)F)N3[C@@H](C#N)[C@H](C2)N1C)OCO5` (stereo partly drawn), the IC50 in the experiment with A-549 and in the experiment on HT-29 was 0.013 µM in each case.
As to `COCOc1c(OC)c(C)cc2c1[C@@H]1C3Cc4c(O)c(C)c5c(c4[C@H](COC(=O)/C=C/c4ccccc4)N3[C@@H](C#N)[C@H](C2)N1C)OCO5` (stereo partly drawn), the IC50 with A-549, in the experiment on DU-145, in the experiment with HT-29, in the experiment on P-388 and in the experiment with MEL-28 was 0.1 µM each time.
For `COc1c(C)cc2c(c1O)[C@@H]1C3Cc4c(OC(C)=O)c(C)c5c(c4[C@H](CNC(=O)[C@@H](C)NC(=O)CC(C)C)N3[C@@H](O)[C@H](C2)N1C)OCO5` (stereo partly drawn), the IC50 in the experiment with A-549, in the experiment on DU-145, with HT-29, in the experiment on P-388 and with MEL-28 was 0.001 µM throughout.
Take `C/C=C/C(=O)N[C@@H](C)C(=O)NC[C@H]1c2c(c(OC(C)=O)c(C)c3c2OCO3)CC2[C@H]3c4c(cc(C)c(OC)c4O)C[C@@H]([C@H](O)N21)N3C` (stereo partly drawn): the IC50 with A-549 amounted to 0.007 µM; with DU-145 it was 0.007 µM; with HT-29, 0.001 µM; in the experiment on P-388, 0.001 µM; with MEL-28, 0.001 µM.
As for `COCOc1c(OC)c(C)cc2c1[C@@H]1C3Cc4c(OC(C)=O)c(C)c5c(c4[C@H](COC(=O)CCc4ccccc4)N3[C@@H](C#N)[C@H](C2)N1C)OCO5` (stereo partly drawn), the IC50 in the experiment on A-549, in the experiment with DU-145, with HT-29, in the experiment on P-388 and with MEL-28 was 0.1 µM throughout.
On to `COc1c(C)cc2c(c1O)[C@@H]1C3Cc4c(OC(=O)C(F)(F)F)c(C)c5c(c4[C@H](CNC(=O)CCc4ccccc4)N3[C@@H](C#N)[C@H](C2)N1C)OCO5` (stereo partly drawn), for which the IC50 with A-549, in the experiment with DU-145, in the experiment with HT-29, in the experiment with P-388 and in the experiment with MEL-28 was 0.01 µM in each case.
`COCOc1c(OC)c(C)cc2c1[C@@H]1C3Cc4c(OC(=O)CCCl)c(C)c5c(c4[C@H](CNC(=O)CCc4ccccc4)N3[C@@H](C#N)[C@H](C2)N1C)OCO5` (stereo partly drawn): the IC50 in the experiment on A-549, with DU-145, in the experiment on HT-29, in the experiment on P-388 and in the experiment on MEL-28 was 0.05 µM each time.
`COc1c(C)cc2c(c1O)[C@@H]1C3[C@@H]4SCC(=O)C(=O)OC[C@@H](c5c6c(c(C)c(OC(C)=O)c54)OCO6)N3[C@@H](C#N)[C@H](C2)N1C` (stereo partly drawn): the IC50 in the experiment on A-549, with HT-29, in the experiment on P-388 and in the experiment on MEL-28 was 0.1 µM each time.
As to `COc1c(C)cc2c(c1O)[C@@H]1C3Cc4c(OC(C)=O)c(C)c5c(c4[C@H](CNC(=O)CC4CCCCC4)N3[C@@H](C#N)[C@H](C2)N1C)OCO5` (stereo partly drawn), in the experiment with A-549, the IC50 was 0.0015 µM.
`COc1c(C)cc2c(c1O)[C@@H]1C3Cc4c(OC(C)=O)c(C)c5c(c4[C@H](CNC(=O)[C@H](Cc4c[nH]c6ccccc46)NC(=O)OC(C)(C)C)N3[C@@H](C#N)[C@H](C2)N1C)OCO5` (stereo partly drawn): the IC50 in the experiment on A-549 and in the experiment with HT-29 was 0.00012 µM in each case.
Turning to `COc1c(C)cc2c(c1O)[C@@H]1C3Cc4c(OC(C)=O)c(C)c5c(c4[C@H](CNC(=O)[C@H](Cc4c[nH]c6ccccc46)NC(=O)OC(C)(C)C)N3[C@@H](O)[C@H](C2)N1C)OCO5` (stereo partly drawn), in the experiment with A-549, the IC50 is 0.012 µM.
As to `COc1c(C)cc2c(c1OC(C)=O)[C@@H]1C3Cc4c(OC(C)=O)c(C)c5c(c4[C@H](CNC(=O)[C@@H](C)N(C(C)=O)C(=O)C(F)(F)F)N3[C@@H](C#N)[C@H](C2)N1C)OCO5` (stereo partly drawn), the IC50 in the experiment on A-549 and in the experiment with HT-29 was 0.12 µM in each case.
As to `COc1c(C)cc2c(c1O)[C@@H]1C3Cc4c(OC(C)=O)c(C)c5c(c4[C@H](CNC(=O)[C@H](Cc4ccccc4)NC(=O)OC(C)(C)C)N3[C@@H](C#N)[C@H](C2)N1C)OCO5` (stereo partly drawn), the IC50 in the experiment on A-549 and in the experiment with HT-29 was 0.0013 µM throughout.
Regarding `COc1c(C)cc2c(c1O)[C@@H]1C3Cc4c(OC(C)=O)c(C)c5c(c4[C@H](CNC(=O)c4cccnc4Cl)N3[C@@H](C#N)[C@H](C2)N1C)OCO5` (stereo partly drawn), the IC50 in the experiment with A-549 was found to be 0.00015 µM.
On the same count and under the same terms, as for `COc1c(C)cc2c(c1OC(=O)CC1CCCCC1)[C@@H]1C3Cc4c(OC(C)=O)c(C)c5c(c4[C@H](CNC(=O)CC4CCCCC4)N3[C@@H](C#N)[C@H](C2)N1C)OCO5` (stereo partly drawn), the figure is 0.013 µM.
Regarding `CCCC(=O)Oc1c(OC)c(C)cc2c1[C@@H]1C3Cc4c(OC(C)=O)c(C)c5c(c4[C@H](CNC(=O)[C@H](C)NC(=O)C(F)(F)F)N3[C@@H](C#N)[C@H](C2)N1C)OCO5` (stereo partly drawn), the IC50 in the experiment on A-549 and in the experiment on HT-29 was 0.13 µM each time.
`CCCC(=O)Oc1c(OC)c(C)cc2c1[C@@H]1C3Cc4c(OC(C)=O)c(C)c5c(c4[C@H](CNC(=O)CCc4ccccc4)N3[C@@H](C#N)[C@H](C2)N1C)OCO5` (stereo partly drawn): the IC50 in the experiment on A-549 and in the experiment on HT-29 was 0.0014 µM in each case.
Consider `C=CCOc1c(C)c2c(c3c1CC1[C@H]4c5c(cc(C)c(OC)c5O)C[C@@H]([C@H](C#N)N1[C@H]3COC(=O)/C=C/c1ccccc1)N4C)OCO2` (stereo partly drawn), for which the IC50 with A-549 and with HT-29 was 0.0015 µM each time.
On to `CCCCCC(=O)Oc1c(OC)c(C)cc2c1[C@@H]1C3Cc4c(OC(C)=O)c(C)c5c(c4[C@H](CNC(=O)[C@H](C)NC(=O)C(F)(F)F)N3[C@@H](C#N)[C@H](C2)N1C)OCO5` (stereo partly drawn), for which the IC50 with A-549 and in the experiment with HT-29 was 0.012 µM in each case.
On to `C=CCOC1C(C)=C2OCOC2=C2C1CC1[C@H]3c4c(cc(C)c(OC)c4OCOC)C[C@@H]([C@H](C#N)N1[C@H]2COC(=O)/C(=C/SCC1c2ccccc2-c2ccccc21)OCOC)N3C` (stereo partly drawn), for which the IC50 in the experiment on A-549 and in the experiment with HT-29 was 0.056 µM in each case.
In the case of `COc1c(C)cc2c(c1OC(=O)CCC1CCCCC1)[C@@H]1C3Cc4c(OC(C)=O)c(C)c5c(c4[C@H](CNC(=O)CCC4CCCCC4)N3[C@@H](C#N)[C@H](C2)N1C)OCO5` (stereo partly drawn), the IC50 in the experiment on A-549 was 0.12 µM.
Regarding `COCOc1c(OC)c(C)cc2c1[C@@H]1C3CC4C(=O)C(C)=C5OCOC5=C4[C@H](COC(=O)/C(CSCC4c5ccccc5-c5ccccc54)=N/OC)N3[C@@H](C#N)[C@H](C2)N1C` (stereo partly drawn), the IC50 in the experiment with A-549 and with HT-29 was above 1 µM in each case.
Turning to `C=CCNC[C@H]1c2c(c(OC(C)=O)c(C)c3c2OCO3)CC2[C@H]3c4c(cc(C)c(OC)c4O)C[C@@H]([C@H](C#N)N21)N3C` (stereo partly drawn), the IC50 in the experiment on A-549 and with HT-29 was 0.0018 µM throughout.
For the compound `COc1c(C)cc2c(c1O)[C@@H]1C3Cc4c(OC(C)=O)c(C)c5c(c4[C@H](CNC(=O)CCC4CCCCC4)N3[C@@H](C#N)[C@H](C2)N1C)OCO5` (stereo partly drawn), the IC50 in the experiment on A-549 was 0.0015 µM.
Consider `COC1=C(C)C(=O)C2=C(C1=O)[C@H](CNC(C)=O)N1C(C2)[C@H]2c3c(cc(C)c(OC)c3O)C[C@@H]([C@@H]1C#N)N2C` (stereo partly drawn), for which the IC50 in the experiment on A-549, with HT-29, in the experiment on P-388 and in the experiment on MEL-28 was 0.005 µM each time.
Consider `COCOc1c(OC)c(C)cc2c1[C@@H]1C3Cc4c(OC(C)=O)c(C)c5c(c4[C@H](COC(=O)/C=C/c4ccccc4)N3[C@@H](C#N)[C@H](C2)N1C)OCO5` (stereo partly drawn), for which the IC50 in the experiment on P-388 was found to be 0.01 µM.
`COc1c(C)cc2c(c1O)[C@@H]1C3Cc4c(OC(C)=O)c(C)c5c(c4[C@H](CNC(=O)c4cccnc4Cl)N3[C@@H](O)[C@H](C2)N1C)OCO5` (stereo partly drawn): the half-maximal inhibitory concentration (IC50) in the experiment on A-549 is 0.00015 µM.
Take `CCCCCC(=O)Oc1c(OC)c(C)cc2c1[C@@H]1C3Cc4c(OC(C)=O)c(C)c5c(c4[C@H](CNC(=O)C(C)NC(=O)CCc4ccccc4)N3[C@@H](C#N)[C@H](C2)N1C)OCO5` (stereo partly drawn): the IC50 in the experiment on A-549 and in the experiment with HT-29 was 0.06 µM each time.
As to `COc1c(C)cc2c(c1O)[C@@H]1C3Cc4c(OC(C)=O)c(C)c5c(c4[C@H](CNC(=O)[C@@H](NC(=O)OC(C)(C)C)C(C)C)N3[C@@H](C#N)[C@H](C2)N1C)OCO5` (stereo partly drawn), the IC50 in the experiment with A-549 and in the experiment on HT-29 was 0.007 µM throughout.
As for `CCCCCC(=O)Oc1c(OC)c(C)cc2c1[C@@H]1C3Cc4c(OC(C)=O)c(C)c5c(c4[C@H](CNC(=O)CCc4ccccc4)N3[C@@H](C#N)[C@H](C2)N1C)OCO5` (stereo partly drawn), the IC50 in the experiment with A-549 and in the experiment on HT-29 was 0.013 µM throughout.
Consider `CCCC(=O)Oc1c(OC)c(C)cc2c1[C@@H]1C3Cc4c(OC(C)=O)c(C)c5c(c4[C@H](CN(C(=O)CCC)C(=O)[C@H](C)N(C(=O)CCC)C(=O)C(F)(F)F)N3[C@@H](C#N)[C@H](C2)N1C)OCO5` (stereo partly drawn), for which the IC50 in the experiment on A-549 and in the experiment with HT-29 was 0.11 µM throughout.
Regarding `COc1c(C)cc2c(c1O)[C@@H]1C3Cc4c(OC(C)=O)c(C)c5c(c4[C@H](CNC(=O)[C@@H]4CCCN4C(=O)OC(C)(C)C)N3[C@@H](C#N)[C@H](C2)N1C)OCO5` (stereo partly drawn), the IC50 in the experiment on A-549 and in the experiment on HT-29 was 0.014 µM throughout.
